From ChEMBL document CHEMBL3217661, “Selective inhibition of E. coli 1-deoxy-D-xylulose-5-phosphate synthase by acetylphosphonates()” (Medchemcomm, 2012)

Tests used:
[1] = molecular target: T1, 1-deoxy-D-xylulose-5-phosphate synthase (Escherichia coli (strain K12), UniProt P77488); test: Competitive inhibition of ThDP-dependent Escherichia coli DXP synthase using pyruvate as substrate assessed as NADPH consumption by spectrophotometric coupled assay
T1 sequence (P77488 whole entry): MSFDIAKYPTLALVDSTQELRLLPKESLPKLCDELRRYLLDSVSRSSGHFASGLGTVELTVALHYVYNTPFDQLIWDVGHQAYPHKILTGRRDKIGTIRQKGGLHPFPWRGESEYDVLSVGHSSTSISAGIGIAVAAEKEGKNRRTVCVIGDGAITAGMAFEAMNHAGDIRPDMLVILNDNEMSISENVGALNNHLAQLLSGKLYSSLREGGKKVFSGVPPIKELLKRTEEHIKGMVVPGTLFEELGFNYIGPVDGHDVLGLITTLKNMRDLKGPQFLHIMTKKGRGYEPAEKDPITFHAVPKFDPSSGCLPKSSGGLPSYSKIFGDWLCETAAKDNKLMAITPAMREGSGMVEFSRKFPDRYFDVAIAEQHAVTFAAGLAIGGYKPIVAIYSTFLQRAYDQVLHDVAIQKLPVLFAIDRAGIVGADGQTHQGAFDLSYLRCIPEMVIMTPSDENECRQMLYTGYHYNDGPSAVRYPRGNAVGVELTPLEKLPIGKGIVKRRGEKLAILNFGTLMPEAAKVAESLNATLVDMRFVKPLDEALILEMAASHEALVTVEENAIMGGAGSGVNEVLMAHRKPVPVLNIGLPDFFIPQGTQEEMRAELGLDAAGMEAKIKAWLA

[2] = Inhibition of ThDP-dependent Saccharomyces cerevisiae transketolase by spectrophotometric coupled assay
[3] = Inhibition of ThDP-dependent pyruvate dehydrogenase E1 subunit in porcine heart using pyruvate as substrate by spectrophotometric coupled assay; design: species or system Sus scrofa
[4] = Selectivity ratio of Ki for pyruvate dehydrogenase E1 subunit in porcine heart to Ki for Escherichia coli DXP synthase

Row | SMILES | Ki [1] | Ki [2] | Ki [3] | Ratio Ki [4]
1 | CCOP(=O)(O)C(C)=O | 6.7 µM | > 1000 µM | 46.6 µM | –
2 | COP(=O)(O)C(C)=O | 0.96 µM | > 1000 µM | 29.9 µM | 31
3 | CCC(=O)P(=O)(O)OC | 258 µM | > 1000 µM | > 1000 µM | –
4 | CCCCOP(=O)(O)C(C)=O | 5.6 µM | > 1000 µM | 335 µM | 60
5 | CCCCC(=O)P(=O)(O)OC | > 1000 µM | > 1000 µM | > 1000 µM | –
6 | CCCC(=O)P(=O)(O)OC | > 1000 µM | > 1000 µM | > 1000 µM | –
